Columns and labels:
Format in all cases: in vivo
[1] = tested on: Pennlinks creeping bentgrass maintained as a golf fairway; test: Phytotoxic injury rating, fairway creeping bentgrass (Example 15)
Source text: (§1) In this Example, the effect of a fertilizer comprising lysine on cool season fairway turfgrass growth was examined. The effects of lysine (HCl) and LIQUID LYSINE on a common type of golf course fairway variety turfgrass (Pennlinks creeping bentgrass maintained as a golf fairway) were compared with those of urea, Milorganite and a blended fertilizer (a blend of methylene urea and urea in an approximately 1:1 ratio).
Fifteen fertilizer treatments comprising three concentrations of each fertilizer composition (Milorganite (N—P—K, 6-2-0), urea (N—P—K, 46-0-0), a blended fertilizer, LIQUID LYSINE (N—P—K, 10-2-1), and lysine (HCl) (N—P—K, 15-2-1)) were prepared and applied to 3 replications of a well established Pennlinks creeping bentgrass maintained as a golf fairway grass. The urea, lysine (HCl), and LIQUID LYSINE were dissolved/suspended in 1.5 gal water prior to application. […] The urea, LIQUID LYSINE and lysine (HCl) were applied as foliar liquids, while Milorganite and the blended fertilizer were applied as granular fertilizers. Plot size was 4 ft×8 ft laid out in a replicated complete block design. Plots were mowed at 0.5 inches before fertilizer application and mowed three times per week to 0.5 inch height. Grass clippings were not removed from the plots and no supplemental cultural maintenance was applied. Irrigation (0.15 inch) was applied following application and every other day thereafter. Plots were rated for turfgrass quality (scale of 1-9 where 9=dark green turf, 1=dead/brown turf, and 6=minimally acceptable turf and phytotoxic injury (scale of 0-9 where 9=significant foliar injury and 2=minimally objectional foliar injury) throughout the study period. Quality was measured prior to application (day 0) and day 37, day 70 and day 95 after application. Injury was measured on day 37, day 70 and day 95 after application. All data was subject to statistical analysis and significant means were determined. Average turfgrass quality ratings for the treatments are presented in Table 24.

[2] = tested on: Moonlight Kentucky bluegrass; test: Turfgrass quality rating, Kentucky bluegrass lawn (Example 17)
Source text: as §1, with “lawn variety” for “fairway”, “variety” for “type”, “law” for “golf course fairway variety”, “(Moonlight Kentucky bluegrass)” for “(Pennlinks creeping bentgrass maintained as a golf fairway)”
Fifteen fertilizer treatments comprising three concentrations of each fertilizer composition (Milorganite N—P—K, 6-2-0), urea (N—P—K, 46-0-0), a blended fertilizer, LIQUID LYSINE (N—P—K, 10-2-1), and lysine (HCl) (N—P—K, 15-2-1)) were prepared and applied to 3 replications of newly established “Moonlight” variety Kentucky bluegrass lawn turfgrass. The urea, lysine (HCl), and LIQUID LYSINE were dissolved/suspended in 1.5 gal water prior to application. […], […], The urea, LIQUID LYSINE and lysine (HCl) were applied as foliar liquids, while Milorganite and the blended fertilizer were applied as granular fertilizers. Plot size was 4 ft×8 ft laid out in a replicated complete block design. Plots were mowed at 2.0 inches before fertilizer application and mowed two times per week to 2.0 inch height. Grass clippings were not removed from the plots and no supplemental cultural maintenance or pest management was applied. Irrigation (0.15 inch) was applied following application and thereafter only when necessary to insure survival of the turf. Plots were rated for turfgrass quality (scale of 1-9 where 9=dark green turf, 1=dead/brown turf, and 6=minimally acceptable turf) and phytotoxic injury (scale of 0-9 where 9=significant foliar injury and 2=minimally objectionable foliar injury) throughout the study period. Quality was measured prior to application (day 0) and day 37, day 70 and day 95 after application. Injury was measured on day 37 and day 70 after application. In addition, blade density of the grass was measured on day 70 after application (scale of 1-9, where 9=very dense turf, 1=low density turf). All data was subject to statistical analysis and significant means were determined.

[3] = tested on: ultra-dwarf Bermuda grass; test: Phytotoxicity rating, ultra-dwarf Bermuda grass greens (Example 11); settings: scale 0-5, 5=worst
Source text: In this Example, the effect of a fertilizer comprising lysine on warm season turfgrass growth was examined. The effects of lysine (HCl) and LIQUID LYSINE on a common type of golf course greens quality turfgrass (ultra-dwarf Bermuda grass) were compared with those of urea and Milorganite.
Twelve fertilizer treatments comprising three concentrations of each fertilizer composition (Milorganite (N—P—K, 6-2-0), urea (N—P—K, 46-0-0), LIQUID LYSINE (N—P—K, 10-2-1), and lysine (HCl) (N—P—K, 15-2-1)) were prepared and applied to 3 replications of ultra-dwarf Bermuda grass. The lysine (HCl) was dissolved in water prior to application. Each fertilizer treatment was applied in concentrations of 0.125 lb N/1000 ft^2/week, 0.25 lb N/1000 ft^2/week and 0.75 lb N/1000 ft^2/week. The urea, LIQUID LYSINE and lysine (HCl) were applied as foliar liquids, while Milorganite was applied as a granular fertilizer. Plot size was 1 m×1 m set up as a randomized complete block. Plots were mowed at 0.125 inches before fertilizer application. Irrigation (0.15 inch) was applied following application. Plots were rated for turfgrass quality and color (scale of 1-10 where 10=dark green turf, 1=dead/brown turf, and 6=initially acceptable turf) and phytotoxicity (scale of 0-5, where 5=worst, and 2=minimally objectionable) throughout the study period. Quality, color, and phytotoxicity were measured on 2 days before application (day −2) and day 2, day 5, day 15 and day 21 after application. All data was subject to statistical analysis and significant means were determined. Average turfgrass quality ratings for the treatments are presented in Table 12 and the quality results for application rates of 0.25 lb N/1000 ft^2/week are graphically presented in FIG. 6.

[4] = Weekly Rate 0.5 lbs N/1000 ft^2, Day 37
[5] = Weekly Rate 0.5 lbs N/1000 ft^2, Day 70
[6] = Weekly Rate 0.5 lbs N/1000 ft^2, Day 95
[7] = Weekly Rate 1.0 lbs N/1000 ft^2, Day 37
[8] = Weekly Rate 1.0 lbs N/1000 ft^2, Day 70
[9] = Weekly Rate 1.0 lbs N/1000 ft^2, Day 95
[10] = Weekly Rate 3.0 lbs N/1000 ft^2, Day 37
[11] = Weekly Rate 3.0 lbs N/1000 ft^2, Day 70
[12] = Weekly Rate 3.0 lbs N/1000 ft^2, Day 95
[13] = Weekly Rate 0.5 lbs N/1000 ft^2, Day 0
[14] = Weekly Rate 1.0 lbs N/1000 ft^2, Day 0
[15] = Weekly Rate 3.0 lbs N/1000 ft^2, Day 0
[16] = Weekly Rate 0.125 lbs N/1000 ft^2, Day 2
[17] = Weekly Rate 0.125 lbs N/1000 ft^2, Day 5
[18] = Weekly Rate 0.125 lbs N/1000 ft^2, Day 15
[19] = Weekly Rate 0.125 lbs N/1000 ft^2, Day 21
[20] = Weekly Rate 0.125 lbs N/1000 ft^2, Day −2 (before application)
[21] = Weekly Rate 0.25 lbs N/1000 ft^2, Day 2
[22] = Weekly Rate 0.25 lbs N/1000 ft^2, Day 5
[23] = Weekly Rate 0.25 lbs N/1000 ft^2, Day 15
[24] = Weekly Rate 0.25 lbs N/1000 ft^2, Day 21
[25] = Weekly Rate 0.25 lbs N/1000 ft^2, Day −2 (before application)
[26] = Weekly Rate 0.75 lbs N/1000 ft^2, Day 2
[27] = Weekly Rate 0.75 lbs N/1000 ft^2, Day 5
[28] = Weekly Rate 0.75 lbs N/1000 ft^2, Day 15
[29] = Weekly Rate 0.75 lbs N/1000 ft^2, Day 21
[30] = Weekly Rate 0.75 lbs N/1000 ft^2, Day −2 (before application)

Cl.NCCCC[C@H](N)C(=O)O [Lys (HCl) 15% N, L-lysine monohydrochloride]
Injury Rating - Fairway Bentgrass [1, 4]: 1.3ab | Injury Rating - Fairway Bentgrass [1, 5]: 5.7 | Injury Rating - Fairway Bentgrass [1, 6]: 2.0bc | Injury Rating - Fairway Bentgrass [1, 7]: 1.0b | Injury Rating - Fairway Bentgrass [1, 8]: 5.0 | Injury Rating - Fairway Bentgrass [1, 9]: 3.0abc | Injury Rating - Fairway Bentgrass [1, 10]: 2.0a | Injury Rating - Fairway Bentgrass [1, 11]: 4.7 | Injury Rating - Fairway Bentgrass [1, 12]: 2.0bc | Quality Rating - Kentucky Bluegrass [2, 13]: 5.0cde | Quality Rating - Kentucky Bluegrass [2, 4]: 5.3b | Quality Rating - Kentucky Bluegrass [2, 5]: 4.3cd | Quality Rating - Kentucky Bluegrass [2, 6]: 5.7ab | Quality Rating - Kentucky Bluegrass [2, 14]: 5.3bcd | Quality Rating - Kentucky Bluegrass [2, 7]: 7.3a | Quality Rating - Kentucky Bluegrass [2, 8]: 6.0ab | Quality Rating - Kentucky Bluegrass [2, 9]: 6.0a | Quality Rating - Kentucky Bluegrass [2, 15]: 6.3ab | Quality Rating - Kentucky Bluegrass [2, 10]: 8.0a | Quality Rating - Kentucky Bluegrass [2, 11]: 6.7a | Quality Rating - Kentucky Bluegrass [2, 12]: 5.7ab | Phytotoxicity - Dwarf Bermuda Grass [3, 16]: 0 | Phytotoxicity - Dwarf Bermuda Grass [3, 17]: 0 | Phytotoxicity - Dwarf Bermuda Grass [3, 18]: 0 | Phytotoxicity - Dwarf Bermuda Grass [3, 19]: 0 | Phytotoxicity - Dwarf Bermuda Grass [3, 20]: 0 | Phytotoxicity - Dwarf Bermuda Grass [3, 21]: 0 | Phytotoxicity - Dwarf Bermuda Grass [3, 22]: 0 | Phytotoxicity - Dwarf Bermuda Grass [3, 23]: 0 | Phytotoxicity - Dwarf Bermuda Grass [3, 24]: 0 | Phytotoxicity - Dwarf Bermuda Grass [3, 25]: 0 | Phytotoxicity - Dwarf Bermuda Grass [3, 26]: 0 | Phytotoxicity - Dwarf Bermuda Grass [3, 27]: 0 | Phytotoxicity - Dwarf Bermuda Grass [3, 28]: 0 | Phytotoxicity - Dwarf Bermuda Grass [3, 29]: 0 | Phytotoxicity - Dwarf Bermuda Grass [3, 30]: 0

NC(N)=O [Urea, urea, reference compound]
Injury Rating - Fairway Bentgrass [1, 4]: 1.3ab | Injury Rating - Fairway Bentgrass [1, 5]: 6.3 | Injury Rating - Fairway Bentgrass [1, 6]: 2.0bc | Injury Rating - Fairway Bentgrass [1, 7]: 1.3ab | Injury Rating - Fairway Bentgrass [1, 8]: 6.0 | Injury Rating - Fairway Bentgrass [1, 9]: 1.3c | Injury Rating - Fairway Bentgrass [1, 10]: 1.0b | Injury Rating - Fairway Bentgrass [1, 11]: 5.7 | Injury Rating - Fairway Bentgrass [1, 12]: 4.3a | Quality Rating - Kentucky Bluegrass [2, 13]: 4.7de | Quality Rating - Kentucky Bluegrass [2, 4]: 6.0b | Quality Rating - Kentucky Bluegrass [2, 5]: 4.3cd | Quality Rating - Kentucky Bluegrass [2, 6]: 4.3ab | Quality Rating - Kentucky Bluegrass [2, 14]: 5.0cde | Quality Rating - Kentucky Bluegrass [2, 7]: 7.7a | Quality Rating - Kentucky Bluegrass [2, 8]: 5.3bc | Quality Rating - Kentucky Bluegrass [2, 9]: 6.3a | Quality Rating - Kentucky Bluegrass [2, 15]: 6.3ab | Quality Rating - Kentucky Bluegrass [2, 10]: 8.0a | Quality Rating - Kentucky Bluegrass [2, 11]: 6.7a | Quality Rating - Kentucky Bluegrass [2, 12]: 4.3ab | Phytotoxicity - Dwarf Bermuda Grass [3, 16]: 0 | Phytotoxicity - Dwarf Bermuda Grass [3, 17]: 0 | Phytotoxicity - Dwarf Bermuda Grass [3, 18]: 0 | Phytotoxicity - Dwarf Bermuda Grass [3, 19]: 0 | Phytotoxicity - Dwarf Bermuda Grass [3, 20]: 0 | Phytotoxicity - Dwarf Bermuda Grass [3, 21]: 0 | Phytotoxicity - Dwarf Bermuda Grass [3, 22]: 0 | Phytotoxicity - Dwarf Bermuda Grass [3, 23]: 0 | Phytotoxicity - Dwarf Bermuda Grass [3, 24]: 0 | Phytotoxicity - Dwarf Bermuda Grass [3, 25]: 0 | Phytotoxicity - Dwarf Bermuda Grass [3, 26]: 0 | Phytotoxicity - Dwarf Bermuda Grass [3, 27]: 0 | Phytotoxicity - Dwarf Bermuda Grass [3, 28]: 0 | Phytotoxicity - Dwarf Bermuda Grass [3, 29]: 0 | Phytotoxicity - Dwarf Bermuda Grass [3, 30]: 0
